Results reported in US4966962A, “Reverse analogue of actinomycin D” (Trustees of Boston University, priority 1988, dated 1990).
*1 amine or outer side, *2 acyl side, *3 side chain or, on linkers, in order; H or OH if unused. Where a SMILES comes first, the peptide text is derived from it. Bridges are numbered along the chain shown (N, C = ends). Roman numbers before positions name the chains, in order. [ ]: non-standard residue; d: D form. Actinocin(9to1) = Cc1c2oc3c(C)ccc(C(=O)[*:1])c3nc-2c(C(=O)[*:2])c(N)c1=O; NMeV = CN[C@H](C(=O)O)C(C)C; Sar = CNCC(=O)O

Key:
[1] = tested on: lung LX-1; test: Treatment of lung LX-1 tumor; format: in vivo; settings: at the doses tested
[2] = tested on: colon 38 adenocarcinoma; test: Activity against advanced colon carcinoma C38 tumor; format: in vivo, CDF1 mice; settings: for % inhibn of tumor: tumors measured day 21; for activity relative to AMD at equivalent doses: every 4 days, three times, from day 1 after implant
Description: In view of favorable activity agianst colon 26 carcinoma, further experiments using the active analogues were carried out on the advanced colon adenocarcinomas of mouse colon 38. […] The superiority of RAD III and SAD over AMD in inhibiting colon 38 carcinoma is evident from the data of both tumor weight inhibition and increases in survival time of the treated over nontreated mice and the larger number of long-term survivors produced by these analogues.
^a CDF1 mice were injected sc with colon 38 adenocarcinoma
fragments (70 mg) and treated with drugs with iv injections on day 1, 5,
and 9 following tumor imoplantation on day 0. ^b [100 (tumor weight o
treated mice/tumor weight of untreated mice)] × 100; data pooled
from two experiments, tumors measured on day 21 after implantation ^c
(Median survival time of treated mice/median survival of untreated mice)
× 100; in parenthesis, number of over 100 day survivors/number of […]

[3] = tested on: CX-1 human colon adenocarcinoma; test: Chemotherapy of human colon CX-1 tumor heterotransplanted in nude mice; format: in vivo, human tumor in athymic mice; settings: for % T/C, optimal: TST 15, observed day 22; for response of CX-1 tumor to treatment (in words): three iv treatments weekly from 15th day of transplant, at the doses tested
Description: Tables XI and XII show the effectiveness of SAD (2) and RAD (3b and 3c) against CX-1 human colon adenocarcinoma heterotransplanted into athymic mice, with three iv treatments with drugs on a weekly schedule starting on the 15th day of tumor transplant. AMD and the analogues were tested at doses of 45 and 60 ug/kg.
^a -, % T/C high than 50%; ±, % T/C close to 50%; +, % T/C from 50
to 35%; ++, % T/C from 35% to 20%; +++, % T/C lower than 20%; ++++,
regression of the tumor to a volume lower than 10% of the volume at the
start of treatment. ^b Statistically significant as evaluated by the
^a Intravenous treatment, once a week for three weeks; eight mice per
group. ^b TST; number of days between tumor transplant and starting o
treatment. ^c Numbers in parentheses; day of observation after the […]

[4] = tested on: mammary MX-1; test: Treatment of mammary MX-1 tumor; format: in vivo; settings: at the doses tested
[5] = tested on: supercoiled closed-circular pBR322 DNA; test: Cleavage of closed circular pBR322 DNA; format: biochemical; settings: for Percentage of closed circular pBR322 DNA cleaved: 20° C., 1 h, Na2S2O4, FeCl2
Description: The cleavage of DNA was followed by monitoring of the conversion of supercoiled closed-circular pBR322 DNA to open-circular DNA (analyzed by agarose gel electrophoresis and quantitated by staining with 0.5 ug/mL of ethidium bromide for 30 min and densitometry; (Table II). SAD and RAD show strong DNA-cleaving ability in the presence of sodium hydrosulfite and ferrous chloride. Presumably, sodium hydrosulfite acts as a reducing agent and regenerates Fe(II) from Fe(III) to produce a continuous source of the active metal ion. When the DNA-cleaving reaction with the analogues was performed at 20° C., the ratio of cleaved DNA (open circular form DNA versus closed circular DNA) was almost maximum within 1 h. […] Cleavage of DNA by the analogues is aided by the actinomycin chromopeptide moiety, which acts as a site-specific binder to DNA, and is effected by the aminoquinone function which is chelated to the ferrous ion during the process, and this is the likely candidate which generates the radical species.
Plasmid DNA pBR322 (0.5 ug) was dissolved in /8 μL of a reaction buffer (5 mM […], 10 mM Tris-HCl). To this solution, 1 μL of the 10 mM aqueous solution of the agent containing 1 mM FeCl2 was added. The mixture was incubated for 0.5-2 h at 20° or 37° C. Then, the incubation mixture was mixed with 10 uL of sample loading buffer (50% glycerin in 2 X Boyer's buffer containing 0.01% bromophenol blue). Finally, 5 uL of the mixture was analyzed by 0.7% agarose gel electrophoresis (120 V, Boyer's buffer; the migration distance of bromophenol blue was 5.0 cm). The gel was stained with […] of ethidium bromide and then quantitated by densitometry.
^a Ten microliters of 200 u M pBR322 DNA nucelotides in UM 10 mM
TrisHCl (pH 7.8) and 50 mM NaCl, containing 4 mM Na2 --S2
O4 and 100 μM FeCl2, was incubated with drug concentration a
20° C. for 1 h; the reaction mixture was kept saturated with air
throughout the incubation period.
^b Percentage of DNA was calculated from the amounts of openand
closedcir- cular DNA in the incubation mixture.

[6] = tested on: rat liver microsomes; test: Stimulation of adrenochrome formation (superoxide) by rat hepatic microsomal incubations; format: biochemical; settings: for adrenochrome formation in presence of SOD: with SOD (superoxide dismutase) 5 ug/mL; for percentage stimulation of adrenochrome formation / adrenochrome formation: without SOD; for percentage stimulation of adrenochrome formation: (drug-stimulated rate - basal rate)/basal rate × 100; for adrenochrome formation: average ± standard error of triplicate
Excerpt: It has been reported that the quinone imino chromophore of actinomycin can be subjected to enzyme-catalyzed single-electron reduction to give free-radical species that generate superoxides by reacting with molecular oxygen. The process needs a reductive cofactor NADPH, which is oxidized to NADP^+ during the process, giving a change in the absorbance at 340 nm that can be measured spectrophotometerically. Alternatively, the superoxides generated during the process may be allowed to react with epinephrine to produce adrenochrome, a chromophore with strong absorbance at 480 nm that can be measured spectrophotmetrically.
The superoxide formations were studied via NADPH oxidation catalyzed by AMD analogues in the presence of rat liver microsomes. […] The process of adrenochrome formation is inhibited by superoxide dismutase, confirming that superoxide is indeed generated in these systems.
^a The percentage stimulation = (drugstimulated rate basal rate)/basa
rate × 100 and is shown in parentheses. NADPH oxidation was measure
at 340 nm and adrenochrome formation was measured at 489 nm; the values
are average ± standard errors of triplicate analyses. ^b SOD,

[7] = tested on: P388/ADR (adriamycin resistant) leukemia; test: Antitumor activity in vivo, P388/ADR leukemia; set-up: species or system mice; settings: at optimal dose, ip days 1, 5, 9
Description: The analogues were also tested against P388/ADR murine leukemia following the standard protocol (Table VI).
ILS = percent increase in life span.

[8] = dose 0.075 mg/kg iv days 1, 5, 9
[9] = dose 0.15 mg/kg iv days 1, 5, 9
[10] = dose 0.30 mg/kg iv days 1, 5, 9
[11] = dose 0.45 mg/kg iv days 1, 5, 9
[12] = dose 0.60 mg/kg iv days 1, 5, 9
[13] = dose 45 μg/kg iv once a week for three weeks
[14] = dose 60 μg/kg iv once a week for three weeks
[15] = dose 1.20 mg/kg iv days 1, 5, 9

Row | Structure (SMILES) | response of lung LX-1 to treatment [1] | % T/C (median survival time) [2, 9] [%] | % T/C (median survival time) [2, 10] [%] | % inhibn of tumor [2, 10] [%] | % T/C (median survival time) [2, 12] [%] | % inhibn of tumor [2, 12] [%] | % T/C, optimal [3, 13] [%] | % T/C, optimal [3, 14] [%] | response of CX-1 tumor to treatment (in words) [3] | response of mammary MX-1 to treatment [4] | Percentage of closed circular pBR322 DNA cleaved [5] [%] | Percentage of closed circular pBR322 DNA cleaved ([5]; concn 100 M (so in the source)) [%] | adrenochrome formation in presence of SOD [6] | percentage stimulation of adrenochrome formation [6] [%] | adrenochrome formation [6] | over 100 day survivors/number of mice [2, 12] | % T/C (median survival time) [2, 15] [%] | over 100 day survivors/number of mice [2, 15] | % inhibn of tumor [2, 15] [%] | tumor free survivors/total on day 60 [7] | other results
1 | Cc1c2oc3c(C)ccc(C(=O)N[C@@H]4C(=O)N[C@H](C(C)C)C(=O)N5CCC[C@H]5C(=O)N(C)CC(=O)N(C)[C@@H](C(C)C)C(=O)O[C@@H]4C)c3nc-2c(C(=O)N[C@@H]2C(=O)N[C@H](C(C)C)C(=O)N3CCC[C@H]3C(=O)N(C)CC(=O)N(C)[C@@H](C(C)C)C(=O)O[C@@H]2C)c(N)c1=O [AMD (1), Actinomycin D] (I: T[dV]P[Sar][NMeV] / II: T[dV]P[Sar][NMeV]; ester I:1-I:C, II:1-II:C; linker I:N-II:N via Actinocin(9to1)) | practically ineffective | 107 | 134 | 67 | 103 | 89 | 34 | 36 | ineffective | practically ineffective | 10 | 22 | inhibited | 8.5 | 2.29 ± 0.33 nmol/min per mg of protein | – | – | – | – | – | % T/C (median survival time) [2, 8]: 100%; % inhibn of tumor [2, 8]: 30%; % inhibn of tumor [2, 9]: 30%; % T/C (median survival time) [2, 11]: 170%; % inhibn of tumor [2, 11]: 83%; DNA cleaving efficiency relative to RAD III (3c) and SAD (2) [5]: about 30%
2 | Cc1c2oc3c(C)c4oc(-c5ccccc5)nc4c(C(=O)N[C@@H]4C(=O)N[C@H](C(C)C)C(=O)N5CCC[C@H]5C(=O)N(C)CC(=O)N(C)[C@@H](C(C)C)C(=O)O[C@@H]4C)c3nc-2c(C(=O)N[C@@H]2C(=O)N[C@H](C(C)C)C(=O)N3CCC[C@H]3C(=O)N(C)CC(=O)N(C)[C@@H](C(C)C)C(=O)O[C@@H]2C)c(N)c1=O [RAD II (3b)] | – | 103 | 137 | 70 | 170 | 83 | 48 | 24 | marginal but positive activity | – | – | – | inhibited | 800 | 18.8 ± 1.9 nmol/min per mg of protein | 3/9 | 103 | 2/9 | 88 | 1/8 | over 100 day survivors/number of mice [2, 9]: 1/9; % inhibn of tumor [2, 9]: 29%
3 | Cc1c2oc3c(C)c4oc(CC(=O)NCCCCN)nc4c(C(=O)N[C@@H]4C(=O)N[C@H](C(C)C)C(=O)N5CCC[C@H]5C(=O)N(C)CC(=O)N(C)[C@@H](C(C)C)C(=O)O[C@@H]4C)c3nc-2c(C(=O)N[C@@H]2C(=O)N[C@H](C(C)C)C(=O)N3CCC[C@H]3C(=O)N(C)CC(=O)N(C)[C@@H](C(C)C)C(=O)O[C@@H]2C)c(N)c1=O [RAD III (3c)] | practically ineffective | – | 170 | 80 | 250 | 93 | 5 | 3 | responded remarkably well to the treatment of RAD III at doses of 45 and 60 ug/kg | practically ineffective | 40 | 58 | inhibited | 870 | 22.1 ± 2.2 nmol/min per mg of protein | 6/9 | 231 | 3/9 | 94 | 2/8 | over 100 day survivors/number of mice [2, 10]: 1/9; activity relative to AMD at equivalent doses [2]: about 150%; Percentage of closed circular pBR322 DNA cleaved ([5]; concn 25 M (so in the source)): 45%; Percentage of closed circular pBR322 DNA cleaved ([5]; concn 50 M (so in the source)): 50%
4 | Cc1c2oc3c(C)c(O)c(N)c(C(=O)N[C@@H]4C(=O)N[C@H](C(C)C)C(=O)N5CCC[C@H]5C(=O)N(C)CC(=O)N(C)[C@@H](C(C)C)C(=O)O[C@@H]4C)c3nc-2c(C(=O)N[C@@H]2C(=O)N[C@H](C(C)C)C(=O)N3CCC[C@H]3C(=O)N(C)CC(=O)N(C)[C@@H](C(C)C)C(=O)O[C@@H]2C)c(N)c1=O [SAD (2)] | practically ineffective | – | 278 | 95 | 278 | 97 | – | – | responded fairly well to SAD treatment but at 60 ug/kg only | practically ineffective | 35 | 65 | inhibited | 815 | 19.3 ± 1.04 nmol/min per mg of protein | 6/9 | 211 | 2/9 | 99 | 3/8 | over 100 day survivors/number of mice [2, 10]: 5/9; activity relative to AMD at equivalent doses [2]: about 150%; Percentage of closed circular pBR322 DNA cleaved ([5]; concn 25 M (so in the source)): 50%; Percentage of closed circular pBR322 DNA cleaved ([5]; concn 50 M (so in the source)): 50%
